Results from patent US20210108198A1, “APPLICATION OF COMPOUND OR TRADITIONAL CHINESE MEDICINE EXTRACT IN PREPARATION OF NUCLEIC ACID DELIVERY AGENT AND RELATED PRODUCTS THEREOF” (INSTITUTE OF BASIC MEDICAL SCIENCES CHINESE ACADEMY OF …, priority 2017, published 2021).
Entries after “also recorded” stand apart in the source; their conditions may differ.

What was measured:
A549 cell = assay: RT-qPCR detection of nucleic acid delivered by lipid into A549 cells; assay type: cell-based, human
Description: (§1) 3.1 NCI-N87 cell (gastric cancer cell), MRC-5 cell (lung fibroblast), A549 cell (lung cancer cell) were cultured to logarithmic growth phase, and then plated to a six-well plate at cell density of 1×10^6/2 mL medium/well; MRC-5 cell was cultured in Eagle's MEM medium (MEM, Gibco); A549 cell was cultured in Ham's F-12 medium (HyClone); NCI-N87 cell was cultured in RPMI-1640 medium (HyClone); followed by incubation overnight at 37° C., and the follow-up experiments were performed after the cells were attached to the walls.
4) Lipid nucleic acid mixture: the mixture of lipid and HJT-sRNA-m7 prepared from the step 2 were added into cells and mixed, and the final concentration of RNA was kept at 200 nM.
(§2) 3.3 After co-incubation with the small RNA for 3 hours, the cells were washed 2-3 times with PBS. The cells were harvested with TRIzol lysis buffer, and the total RNA was extracted. The abundance of small RNA that entered cells was detected by RT-qPCR, and the localization of RNA was detected by fluorescence in situ hybridization; protocols of each detection method were as follows:
3.3.1 RT-qPCR Detection of Small RNA (Taqman Probe Method)
(§3) 3.3.2 RT-qPCR Detection of Small RNA (SYBR Green Dye Method)
Mixtures of soybean PC, lipid No. 11 (18:0/18:2) and lipid No. 12 (16:0/18:2), and various small RNA (see below Table 3) were prepared by the reverse evaporation method and then added into A549 cell line (the final concentration of sRNA was 200 nM); the negative control group (control) was directly added with the same concentration of sRNA; the positive control group (RNAimax) was transfected with Lipofectamine RNAimax (transfection reagent 6 μl/well). The abundance of sRNA in the cells was detected by Taqman probe after 3 hours, and the relative expression level of sRNA was calculated by 2-ΔCt method.
3.1.3 After co-incubation with cells for 12-24 hours, the cells were washed twice with PBS. The cells were harvested with TRIzol lysis buffer (purchased from Sigma-Aldrich), and total RNA was extracted. The abundance of HJT-sRNA-m7 that entered the cells was detected by RT-qPCR; the protocols were as follows:
4368813) was used to reverse transcribe sRNA to cDNA by stem-loop method (see, e.g. Real-time quantification of microRNAs by stem-loop RT-PCR, Nucleic Acids Res. 2005 Nov. 27; 33(20):e179, incorporated by reference herein).

A549 cells [1] = assay: Confocal fluorescence microscopy of nucleic acid delivered by lipid in cells; assay type: cell-based, human; conditions: 4 μl lipid, boiling method; 6 hours of co-incubation
Description: Experimental materials: A549 cells (purchased from the Cell Center of the Chinese Academy of Medical Sciences), PGY-sRNA-6-Cy3 (purchased from Ribobio Biotechnology Co., Ltd.), lipid No. 41, Zeiss LSM780 (purchased from Zeiss, Germany), Alexa Fluor® 488 phalloidin (purchased from Invitrogen, USA), DAPI (purchased from Invitrogen, USA), paraformaldehyde (purchased from sigma, USA).
(§4) Experimental methods: PGY-sRNA-6-FAM was dissolved in 100 μl water, mixed with 4 μl lipid, and prepared by the boiling method. Then the mixture was dropped into A549 cells, and after 6 hours of co-incubation, the samples were washed three times with PBS, fixed with 4% paraformaldehyde, washed three times with PBS, stained with Alexa Fluor® 488 phalloidin for 30 min, washed 3 times with PBS, and stained with DAPI for 5 min, washed with PBS, and then sealed.
as §4, with “method:” for “methods:”, “water, and” for “water,”, “by” for “by the”, “Then,” for “Then”, “PBS washed,” for “washed with PBS,”

MRC-5 cell = assay: RT-qPCR detection of nucleic acid delivered by lipid into MRC-5 cells; assay type: cell-based
Description: as §1, §2, §3
The stem-loop primer used in the reverse transcription process was synthesized by Beijing Tsingke Biotechnology Co., Ltd. (U6 RT primer: […] ATG (SEQ ID NO: 21); HJT-sRNA-m7 RT stem-loop primer: […] AA (SEQ ID NO: 22)).
Both the forward and reverse primers of the amplification reaction were designed and synthesized by Beijing Tsingke Biotechnology Co., Ltd. (U6 F Primer: […] (SEQ ID NO: 23), U6 R Primer: […] (SEQ ID NO: 24), HJT-sRNA-m7 F Primer: […] (SEQ ID NO: 25), HJT-sRNA-m7 R Primer: […] (SEQ ID NO: 26)).
3) The relative expression level was calculated by 2-ΔCt method.
3.1.3 After co-incubation with cells for 12-24 hours, the cells were washed twice with PBS. The cells were harvested with TRIzol lysis buffer (purchased from Sigma-Aldrich), and total RNA was extracted.

[2] = In vivo delivery of single-stranded sRNA by single lipid via gavage (blood, stomach, small intestine, liver); design: species or system C57 mice; conditions: 10 μl lipid, 1 nmol each sRNA (PGY-sRNA-23/-26/-32), heating method, 6 hours or 12 hours after administration
Source text: Tissues sampled: live/stomach/small intestine.

A549 cells [3] = assay: Flow cytometry detection of the efficiency of nucleic acid delivery by lipid; assay type: cell-based, human; conditions: boiling method
Description: Experimental materials: A549 cells (purchased from the Cell Center of the Chinese Academy of Medical Sciences), FAM-sRNA (purchased from Ribobio Biotechnology Co., Ltd.), lipid No. 41, Accuri® C6 instrument (purchased from BD, USA).
Experimental methods: PGY-sRNA-6-FAM was dissolved in 100 μl water, mixed with 4 μl lipid, and prepared by boiling method. Then the mixture was dropped into A549 cells, and after 6 hours of co-incubation, the samples were collected for detection as follows: firstly wash three times with PBS, then digest with trypsin for 3 minutes and remove trypsin, wash with PBS again and then blow down the cells. The detection was performed using Accuri® C6 instrument.
Experimental Method: PGY-sRNA-6-FAM was dissolved in 100 μl water, and mixed with 4 μl lipid, and prepared into lipid-sRNA mixture by boiling method. Then, the mixture was dropped into A549 cells, and after 6 hours of co-incubation, the samples were collected and washed three times with PBS, then digested with trypsin into single cells, washed with re-suspended with PBS and then blown down for Accuri® C6 instrument detection.
Experimental Method: FAM-sRNA was dissolved in 100 μl water, and mixed with 4 μl lipid, prepared by boiling method. Then, the lipid-sRNA mixture was dropped into A549 cells, and after 6 hours of co-incubation, the samples were collected and washed three times with PBS, then digested into single cells with trypsin, re-suspended with PBS and then blown down for Accuri® C6 instrument detection.

A549 cells [4] = assay: Digital PCR (ddPCR) detection of the efficiency of nucleic acid delivery by lipid; assay type: cell-based, human
Description: (§5) 2.2 Experimental method: the total cellular RNA was collected and extracted by TRIzol lysis buffer according to the above methods, and reverse transcribed to cDNA using High capacity cRNA Reverse Transcription Kit, and the cDNA from different groups was subject to digital PCR reaction. Refering to the QX200 Droplet Reader and QuantaSoft Software manual for the protocols, the results were analyzed using QuantaSoft software.
as §5, with “method:” for “method: the”, “total” for “total cellular”, “method,” for “methods,”, “subjected” for “subject”, “Refer” for “Refering”, “protocols;” for “protocols,”
(§6) 2.2 Experimental method: Total RNA was collected and extracted by TRIzol lysis buffer according to the above method, and reverse transcribed to cDNA using TaqMan™ MicroRNA Reverse Transcription KitHigh, and the cDNA from different groups was subjected to digital PCR reaction. Refer to the QX200 Droplet Reader and QuantaSoft Software manual for the protocols; the results were analyzed using QuantaSoft software.
as §6, with “reversed” for “reverse transcribed”, “High capacity cRNA” for “TaqMan™ MicroRNA”, “Kit,” for “KitHigh,”

[5] = boiling (heating) method, RNA 100 nM, 2.5 μL single lipid, 12 hours
[6] = boiling (heating) method, RNA 100 nM, 12 hours (No. 37: 3 hours)

CCCCCC/C=C\CCCCCCCC(=O)O[C@H](COC(=O)CCCCCCCCCCCCCCC)COP(=O)(O)OCCN [No. 38, (2-aminoethoxy)[(2R)-2-[(9Z)-hexadec-9-enoyloxy]-3-(hexadecanoyloxy)propoxy]phosphinic acid]
delivery of double-stranded HJT-sRNA-m7 by single lipid (real-time PCR) (A549 cell; [5]): delivered double-stranded RNA into A549 and MRC-5 cells | delivery of single-stranded HJT-sRNA-m7 by single lipid (real-time PCR) (A549 cell; [6]): the efficiency of delivery was much higher than that of RNAiMAX | entry of PGY-sRNA-6-Cy3 observed under the confocal microscopy (A549 cells [1]): could effectively deliver double-stranded nucleic acid into A549 cells | amount of HJT-sRNA-m7 that entered the cells (RT-qPCR) (MRC-5 cell; Example 2-1, FIG. 33, double-stranded 100 nM, boiling method 100° C. 30 min, 24 hours): effectively delivered nucleic acids into MRC-5 cells, showing an effect close to the transfection reagent RNAiMAX | delivery of double-stranded HJT-sRNA-m7 by single lipid (real-time PCR) (MRC-5 cell; boiling (heating) method, RNA 100 nM): delivered double-stranded RNA into A549 and MRC-5 cells; also recorded: about twice that of RNAiMAX | delivery of single-stranded HJT-sRNA-m7 by single lipid (real-time PCR) (MRC-5 cell; [6]): the efficiency of delivery was much higher than that of RNAiMAX | entry of single-stranded small RNA into mouse blood (RT-qPCR) [2]: could effectively deliver sRNA single-stranded nucleic acid into mouse blood via oral administration; also recorded: the delivery effect was better than POPC and Lipofectamine RNAiMAX | efficiency in delivering PGY-sRNA-6 single-stranded RNA (flow cytometry) (A549 cells [3]; PGY-sRNA-6-FAM, 4 μl lipid, 6 hours of co-incubation): 72.5% | efficiency of nucleic acid delivery by flow cytometry, in words (A549 cells [3]; PGY-sRNA-6-FAM, 6 hours): close to that of the positive control RNAiMAX | delivery of HJT-sRNA-m7 dsRNA (ddPCR) (A549 cells [4]; boiling method, 6 hours): could effectively deliver HJT-sRNA-m7 dsRNA into A549 cells | delivery of HJT-sRNA-m7 dsRNA (ddPCR) (A549 cells [4]; reverse evaporation method, 6 hours (No. 39: 6 hours, 12 hours)): could effectively deliver HJT-sRNA-m7 dsRNA into A549 cells

CCCCCCCC/C=C\CCCCCCCCCCCCCC(=O)O[C@H](COC(=O)CCCCCCCCCCCCCC)COP(=O)(O)OCCN [No. 64, 1-pentadecanoyl-2-nervonoyl-sn-glycero-3-phosphoethanolamine]
delivery of double-stranded HJT-sRNA-m7 by single lipid (real-time PCR) (A549 cell; [5]): delivered HJT-sRNA-m7 double-stranded RNA into A549 cells | delivery effect relative to RNAiMAX (real-time PCR) (A549 cell; double-stranded HJT-sRNA-m7 100 nM, boiling method, 12 hours, FIG. 96): about 3 times that of RNAiMAX | delivery of double-stranded HJT-sRNA-m7 by single lipid (real-time PCR) (A549 cell; reverse evaporation method, RNA 100 nM, 12 hours): delivered HJT-sRNA-m7 double-stranded RNA into A549 cells | entry of PGY-sRNA-6-Cy3 observed under the confocal microscopy (A549 cells [1]): could effectively deliver single-stranded RNA into A549 cells | entry of single-stranded small RNA into mouse blood (RT-qPCR) [2]: could effectively deliver sRNA single-stranded nucleic acid into mouse blood via oral administration; also recorded: the delivery effect was better than POPC and Lipofectamine RNAiMAX | efficiency of delivering PGY-sRNA-6 single-stranded RNA relative to RNAiMAX (flow cytometry) (A549 cells [3]; 6 hours, FIG. 97): ½
